In US9757424B2, “Compositions and methods of treating gliomas” (BioMed Valley Discoveries, Inc., priority 2011, dated 2017):

System: U87MG tumor fragments
Experiment: animal or person
Settings: for Deaths NTR (non-treatment-related death) / Deaths TR (treatment-related death) / Mean BW Nadir, day of nadir: combination: temozolomide 5 po qd x 5 + agent qd x 30 (doses as under E7); for combination effect with temozolomide (median group tumor burden at Day 36): dosed in combination with 5 mg/kg temozolomide, FIG. 19
Experimental: HRLN female nu/nu mice were seeded with 1 mm^3 U87MG tumor fragments subcutaneously in the flank. Final caliper and body weight measurements were taken on the last day of the study.
All animals were assessed periodically for body weight, as well as tumor burden, using standard protocols with mechanical calipers. […] Dosing was stopped for any group with two measurements of mean body weight loss of greater than 20%. The group was not euthanized, and recovery was allowed. Within a group with greater than 20% weight loss, individuals reaching the individual body weight loss endpoint were euthanized. If the group body weight loss was recovered, dosing may resume. […] Dosing was then resumed with the candidate agent at half the original dose. Animals were monitored as a group. The endpoint of the experiment was a mean tumor weight in control group (or group 1) of 2000 mm^3 or 60 days, whichever comes first. When the endpoint was reached, all the animals were euthanized.

## COc1ccccc1OCCNCC(O)COc1cccc2[nH]c3ccccc3c12 (stereo not shown) [Carvedilol]
  Deaths NTR (non-treatment-related death): 0
  Deaths TR (treatment-related death): 0

## CCOC(=O)C1=C(COCCN)NC(C)=C(C(=O)OC)C1c1ccccc1Cl (stereo not shown) [amlodipine]
  Deaths NTR (non-treatment-related death): 1
  Deaths TR (treatment-related death): 0
  Mean BW Nadir, day of nadir: Day 3

## CC(CCc1ccccc1)NCC(O)c1ccc(O)c(C(N)=O)c1 (stereo not shown) [Labetalol]
  Deaths NTR (non-treatment-related death): 0
  Deaths TR (treatment-related death): 0

## CCOC(=O)[C@H](CCc1ccccc1)N[C@H]1CCc2ccccc2N(CC(=O)O)C1=O [benazepril]
  Deaths NTR (non-treatment-related death): 1
  Deaths TR (treatment-related death): 0
  combination effect with temozolomide (median group tumor burden at Day 36): next in rank-order potency

## CCCCC(=O)N(Cc1ccc(-c2ccccc2-c2nnn[nH]2)cc1)[C@H](C(=O)O)C(C)C [valsartan]
  Deaths NTR (non-treatment-related death): 0
  Deaths TR (treatment-related death): 0

## CCOC(=O)[C@H](CCc1ccccc1)N[C@@H](C)C(=O)N1Cc2ccccc2C[C@H]1C(=O)O [quinapril]
  Deaths NTR (non-treatment-related death): 0
  Deaths TR (treatment-related death): 0
  Mean BW Nadir, day of nadir: Day 3
  combination effect with temozolomide (median group tumor burden at Day 36): next in rank-order potency

## Clc1cccc(Cl)c1N=C1NCCN1 [Clonidine]
  Deaths NTR (non-treatment-related death): 0
  Deaths TR (treatment-related death): 0
  Mean BW Nadir, day of nadir: Day 3

## CCCCC1=NC2(CCCC2)C(=O)N1Cc1ccc(-c2ccccc2-c2nnn[nH]2)cc1 [irbesartan]
  Deaths NTR (non-treatment-related death): 0
  Deaths TR (treatment-related death): 0
  Mean BW Nadir, day of nadir: Day 3

## COc1ccc([C@@H]2Sc3ccccc3N(CCN(C)C)C(=O)[C@@H]2OC(C)=O)cc1 [diltiazem]
  Deaths NTR (non-treatment-related death): 0
  Deaths TR (treatment-related death): 0
  combination effect with temozolomide (median group tumor burden at Day 36): modest combination effects

## N=C(N)N/N=C/c1c(Cl)cccc1Cl [Guanabenz]
  Deaths NTR (non-treatment-related death): 0
  Deaths TR (treatment-related death): 0

## COCCCOc1cc(C[C@@H](C[C@H](N)[C@@H](O)C[C@H](C(=O)NCC(C)(C)C(N)=O)C(C)C)C(C)C)ccc1OC [aliskerin, aliskiren]
  Deaths NTR (non-treatment-related death): 0
  Deaths TR (treatment-related death): 0

## CCOC(=O)[C@H](CCc1ccccc1)N[C@@H](C)C(=O)N1CCC[C@H]1C(=O)O [Enalapril]
  Deaths NTR (non-treatment-related death): 0
  Deaths TR (treatment-related death): 0

## COC(=O)C1=C(C)NC(C)=C(C(=O)OC(C)(C)CN(C)CCC(c2ccccc2)c2ccccc2)C1c1cccc([N+](=O)[O-])c1 (stereo not shown) [lercanidipine]
  combination effect with temozolomide (median group tumor burden at Day 36): modest combination effects

## CCOC(=O)[C@H](CCc1ccccc1)N[C@@H](C)C(=O)N1[C@H](C(=O)O)C[C@@H]2CCC[C@@H]21 [ramipril]
  Deaths NTR (non-treatment-related death): 0
  Deaths TR (treatment-related death): 0
  Mean BW Nadir, day of nadir: Day 3
  combination effect with temozolomide (median group tumor burden at Day 36): next in rank-order potency

## CCCc1nc(C(C)(C)O)c(C(=O)O)n1Cc1ccc(-c2ccccc2-c2nnn[nH]2)cc1 [olmesartan]
  Mean BW Nadir, day of nadir: Day 3
